From US20250381185A1, “CDK4/PARP1 DUAL-TARGET INHIBITOR AND USE THEREOF” (YANBIAN UNIVERSITY, priority 2024, published 2025)
pIC50: −log10 of the molar value.

Legend:
PARP1 = PARP1 (Homo sapiens, UniProt P09874); test: IC50 of dual-target inhibitors against PARP1; assay type: biochemical
CDK4 = CDK4 (Homo sapiens, UniProt P11802); test: IC50 of dual-target inhibitors against CDK4; assay type: biochemical
Experimental: The effectiveness of the present application was verified through the following tests: • (1) IC50 values of the dual-target inhibitors (Examples 1-11) against CDK4 were determined.

CDK4, sequence (P11802 whole entry): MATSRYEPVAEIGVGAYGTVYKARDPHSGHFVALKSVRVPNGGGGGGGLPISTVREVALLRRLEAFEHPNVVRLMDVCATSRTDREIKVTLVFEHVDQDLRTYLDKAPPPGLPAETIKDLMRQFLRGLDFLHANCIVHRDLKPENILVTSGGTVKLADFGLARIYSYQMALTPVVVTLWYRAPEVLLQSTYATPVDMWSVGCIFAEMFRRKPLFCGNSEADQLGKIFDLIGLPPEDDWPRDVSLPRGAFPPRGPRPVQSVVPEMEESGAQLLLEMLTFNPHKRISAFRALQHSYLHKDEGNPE
CDK4, sequence (P24385 whole entry partner): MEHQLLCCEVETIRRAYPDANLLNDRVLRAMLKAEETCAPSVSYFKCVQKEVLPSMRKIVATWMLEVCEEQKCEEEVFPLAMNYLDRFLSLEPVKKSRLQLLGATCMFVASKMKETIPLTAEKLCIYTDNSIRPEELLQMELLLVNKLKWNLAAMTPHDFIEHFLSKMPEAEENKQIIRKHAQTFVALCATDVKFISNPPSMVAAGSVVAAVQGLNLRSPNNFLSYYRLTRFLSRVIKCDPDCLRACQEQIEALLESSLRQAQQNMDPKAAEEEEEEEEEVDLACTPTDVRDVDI
PARP1, sequence (P09874 whole entry): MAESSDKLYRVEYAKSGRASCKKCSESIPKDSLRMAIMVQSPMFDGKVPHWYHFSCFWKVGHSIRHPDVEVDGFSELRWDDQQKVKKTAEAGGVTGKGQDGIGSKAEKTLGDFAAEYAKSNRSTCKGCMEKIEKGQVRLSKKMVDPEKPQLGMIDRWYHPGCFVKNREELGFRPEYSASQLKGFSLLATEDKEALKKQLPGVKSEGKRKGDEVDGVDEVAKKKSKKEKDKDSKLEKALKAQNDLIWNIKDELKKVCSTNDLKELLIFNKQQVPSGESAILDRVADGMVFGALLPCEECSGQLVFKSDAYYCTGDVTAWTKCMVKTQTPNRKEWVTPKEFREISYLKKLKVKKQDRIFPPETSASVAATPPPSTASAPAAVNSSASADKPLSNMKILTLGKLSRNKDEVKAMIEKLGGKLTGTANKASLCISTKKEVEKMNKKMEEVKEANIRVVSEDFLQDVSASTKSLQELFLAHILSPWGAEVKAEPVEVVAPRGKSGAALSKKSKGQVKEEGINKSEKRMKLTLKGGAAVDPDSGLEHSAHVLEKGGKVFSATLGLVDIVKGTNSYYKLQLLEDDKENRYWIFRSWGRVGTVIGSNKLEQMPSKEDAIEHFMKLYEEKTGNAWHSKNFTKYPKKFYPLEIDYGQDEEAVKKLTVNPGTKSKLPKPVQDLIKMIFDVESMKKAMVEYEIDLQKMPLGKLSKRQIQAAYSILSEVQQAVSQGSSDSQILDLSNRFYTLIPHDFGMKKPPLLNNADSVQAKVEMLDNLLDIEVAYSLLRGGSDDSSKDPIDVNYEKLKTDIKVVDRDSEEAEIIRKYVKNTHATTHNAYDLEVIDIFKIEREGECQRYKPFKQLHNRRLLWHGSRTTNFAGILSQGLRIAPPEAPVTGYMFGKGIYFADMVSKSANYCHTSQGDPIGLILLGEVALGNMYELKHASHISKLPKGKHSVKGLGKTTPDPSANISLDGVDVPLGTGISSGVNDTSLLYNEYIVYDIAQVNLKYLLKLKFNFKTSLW

| SMILES | pIC50 (PARP1) | pIC50 (CDK4) |
| --- | --- | --- |
| Cc1nc2c(F)cc(-c3nc(Nc4ccc(C(=O)N5CCN(c6ccc(NC(=O)c7cc(Cc8n[nH]c(=O)c9ccccc89)ccc7F)cc6)CC5)cc4)ncc3F)cc2n1C(C)C [Compound C2] | < 6.30 | 7.00 to 8.00 |
| Cc1nc2c(F)cc(-c3nc(Nc4ccc(C(=O)N5CCN(c6cccc(NC(=O)c7cc(Cc8n[nH]c(=O)c9ccccc89)ccc7F)c6)CC5)cc4)ncc3F)cc2n1C(C)C [Compound C3] | < 6.30 | 7.00 to 8.00 |
| Cc1nc2c(F)cc(-c3nc(Nc4ccc(C(=O)N5CCN(C(=O)c6cc(Cc7n[nH]c(=O)c8ccccc78)ccc6F)CC5)cc4)ncc3F)cc2n1C(C)C [Compound C7] | 7.00 to 8.00 | > 8.00 |
| Cc1nc2c(F)cc(-c3nc(Nc4ccc(CC(=O)N5CCN(C(=O)c6cc(Cc7n[nH]c(=O)c8ccccc78)ccc6F)CC5)cc4)ncc3F)cc2n1C(C)C [Compound C9] | 7.00 to 8.00 | > 8.00 |
| CN(C)C(=O)c1cc2cnc(NNC(=O)c3cc(Cc4n[nH]c(=O)c5ccccc45)ccc3F)nc2n1C1CCCC1 [Compound D1] | 6.30 to 7.00 | < 6.30 |
| CN(C)C(=O)c1cc2cnc(NCCCCCCNC(=O)c3cc(Cc4n[nH]c(=O)c5ccccc45)ccc3F)nc2n1C1CCCC1 [Compound D6] | > 8.00 | < 6.30 |
| CN(C)C(=O)c1cc2cnc(N3CCN(C(=O)c4cc(Cc5n[nH]c(=O)c6ccccc56)ccc4F)CC3)nc2n1C1CCCC1 [Compound D9] | > 8.00 | < 6.30 |
| CN(C)C(=O)c1cc2cnc(Nc3ccc(NC(=O)CNC(=O)c4cc(Cc5n[nH]c(=O)c6ccccc56)ccc4F)cc3)nc2n1C1CCCC1 [Compound D14] | 7.00 to 8.00 | > 8.00 |
| CN(C)C(=O)c1cc2cnc(NCCNC(=O)CNC(=O)c3cc(Cc4n[nH]c(=O)c5ccccc45)ccc3F)nc2n1C1CCCC1 [Compound E1] | > 8.00 | 6.30 to 7.00 |
| CC(C)[C@H](NC(=O)c1cc(Cc2n[nH]c(=O)c3ccccc23)ccc1F)C(=O)NCCNc1ncc2cc(C(=O)N(C)C)n(C3CCCC3)c2n1 [Compound E2] | 7.00 to 8.00 | 6.30 to 7.00 |
| CN(C)C(=O)c1cc2cnc(NCCNC(=O)[C@H](Cc3c[nH]c4ccccc34)NC(=O)c3cc(Cc4n[nH]c(=O)c5ccccc45)ccc3F)nc2n1C1CCCC1 [Compound E3] | 7.00 to 8.00 | < 6.30 |
| CN(C)C(=O)c1cc2nc(NCCNC(=O)[C@H](Cc3ccccc3)NC(=O)c3cc(Cc4n[nH]c(=O)c5ccccc45)ccc3F)ncc2n1C1CCCC1 [Compound E4] | 7.00 to 8.00 | < 6.30 |
| CC(C)[C@H](NC(=O)c1cc(Cc2n[nH]c(=O)c3ccccc23)ccc1F)C(=O)NNc1ncc2c(cc(C(=O)N(C)C)n2C2CCCC2)n1 [Compound E8] | 7.00 to 8.00 | < 6.30 |
| CN(C)C(=O)c1cc2cnc(NCCOC(=O)c3cc(Cc4n[nH]c(=O)c5ccccc45)ccc3F)nc2n1C1CCCC1 [Compound F1] | 7.00 to 8.00 | < 6.30 |
| CN(C)C(=O)c1cc2cnc(NCCCOC(=O)c3cc(Cc4n[nH]c(=O)c5ccccc45)ccc3F)nc2n1C1CCCC1 [Compound F2] | 7.00 to 8.00 | < 6.30 |

Results, then the molecule that gave them:

| pIC50 (PARP1) | pIC50 (CDK4) | SMILES |
| --- | --- | --- |
| 6.30 to 7.00 | > 8.00 | Cc1nc2c(F)cc(-c3nc(Nc4cccc(Cc5n[nH]c(=O)c6ccccc56)c4)ncc3F)cc2n1C(C)C [Compound A1] |
| < 6.30 | > 8.00 | Cc1nc2c(F)cc(-c3nc(Nc4ccc(C(=O)Nc5cccc(Cc6n[nH]c(=O)c7ccccc67)c5)cc4)ncc3F)cc2n1C(C)C [Compound A2] |
| 7.00 to 8.00 | 7.00 to 8.00 | Cc1nc2c(F)cc(-c3nc(Nc4ccc(CC(=O)Nc5cccc(Cc6n[nH]c(=O)c7ccccc67)c5)cc4)ncc3F)cc2n1C(C)C [Compound A3] |
| 6.30 to 7.00 | > 8.00 | Cc1nc2c(F)cc(-c3nc(Nc4ccc(NC(=O)CCC(=O)Nc5cccc(Cc6n[nH]c(=O)c7ccccc67)c5)cc4)ncc3F)cc2n1C(C)C [Compound A4] |
| < 6.30 | 7.00 to 8.00 | Cc1nc2c(F)cc(-c3nc(Nc4cccc(C(=O)Nc5cccc(Cc6n[nH]c(=O)c7ccccc67)c5)c4)ncc3F)cc2n1C(C)C [Compound A5] |
| < 6.30 | > 8.00 | Cc1nc2c(F)cc(-c3nc(Nc4ccc(Cc5n[nH]c(=O)c6ccccc56)cc4)ncc3F)cc2n1C(C)C [Compound B1] |
| 6.30 to 7.00 | 7.00 to 8.00 | Cc1nc2c(F)cc(-c3nc(Nc4ccc(NC(=O)c5cc(Cc6n[nH]c(=O)c7ccccc67)ccc5F)cc4)ncc3F)cc2n1C(C)C [Compound C1] |
| > 8.00 | > 8.00 | Cc1nc2c(F)cc(-c3nc(Nc4ccc(N5CCN(C(=O)c6cc(Cc7n[nH]c(=O)c8ccccc78)ccc6F)CC5)cc4)ncc3F)cc2n1C(C)C [Compound C5] |
| 7.00 to 8.00 | > 8.00 | Cc1nc2c(F)cc(-c3nc(Nc4ccc(CN5CCN(C(=O)c6cc(Cc7n[nH]c(=O)c8ccccc78)ccc6F)CC5)cc4)ncc3F)cc2n1C(C)C [Compound C6] |
| 7.00 to 8.00 | 7.00 to 8.00 | Cc1nc2c(F)cc(-c3nc(Nc4cccc(C(=O)N5CCN(C(=O)c6cc(Cc7n[nH]c(=O)c8ccccc78)ccc6F)CC5)c4)ncc3F)cc2n1C(C)C [Compound C8] |
